The values below come from US20200361914A1, “SUBSTITUTED BENZENE AND 6,5-FUSED BICYCLIC HETEROARYL COMPOUNDS” (Epizyme, Inc., priority 2014, published 2020).

Like-named read-outs stand apart in the source and are kept apart here. Bounds are passed on as bounds.

In assay [1] the target is wild-type PRC2 enzyme (EZH2 WT) (Homo sapiens, UniProt Q15910). The experiment in a line: PRC2 enzyme assay on peptide substrate, wild-type EZH2.
Description: (§1) S-adenosylmethionine (SAM), S-adenosylhomocyteine (SAH), bicine, KCl, Tween20, dimethylsulfoxide (DMSO) and bovine skin gelatin (BSG) can be purchased from Sigma-Aldrich at the highest level of purity possible. Dithiothreitol (DTT) was purchased from EMD. ^3H-SAM can be purchased from American Radiolabeled Chemicals with a specific activity of 80 C1/mmol. 384-well streptavidin Flashplates can be purchased from PerkinElmer.
(§2) Recombinant PRC2 Enzymes. Human PRC2 enzymes are purified as 4-component enzyme complexes co-expressed in Spodoptera frugiperda (sf9) cells using a baculovirus expression system. […] The EED subunit contains an N-terminal FLAG tag that is used to purify the entire 4-component complex from sf9 cell lysates. The purity of the complexes meets or exceeds 95% as determined by SDS-PAGE and Agilent Bioanalyzer analysis.
(§3) General Procedure for PRC2 Enzyme Assays on Peptide Substrates. The assays are all performed in a buffer consisting of 20 mM bicine (pH=7.6), 0.5 mM DTT, 0.005% BSG and 0.002% Tween20, prepared on the day of use. […] DMSO (1 μL) is added to columns 11, 12, 23, 24, rows A-H for the maximum signal control, and SAH, a known product and inhibitor of PRC2 (1 μL) is added to columns 11, 12, 23, 24, rows I-P for the minimum signal control. A cocktail (40 μL) containing the wild-type PRC2 enzyme and H3K27me0 peptide or any of the Y641 mutant enzymes and H3K27me2 peptide is added by Multidrop Combi (Thermo). The compounds are allowed to incubate with PRC2 for 30 min at 25° C., then a cocktail (10 μL) containing a mixture of non-radioactive and ^3H-SAM is added to initiate the reaction (final volume=51 μL). […] The assays are stopped by the addition of non-radioactive SAM (10 μL) to a final concentration of 600 μM, which dilutes the ^3H-SAM to a level where its incorporation into the peptide substrate is no longer detectable. 50 μL of the reaction in the 384-well polypropylene plate is then transferred to a 384-well Flashplate and the biotinylated peptides are allowed to bind to the streptavidin surface for at least 1h before being washed three times with 0.1% Tween20 in a Biotek ELx405 plate washer. The plates are then read in a PerkinElmer TopCount platereader to measure the quantity of ^3H-labeled peptide bound to the Flashplate surface, measured as disintegrations per minute (dpm) or alternatively, referred to as counts per minute (cpm).
(§4) Where dpm=disintegrations per minute, cmpd=signal in assay well, and min and max are the respective minimum and maximum signal controls.
(§5) Where top and bottom are the normally allowed to float, but may be fixed at 100 or 0 respectively in a 3-parameter fit. The Hill Coefficient normally allowed to float but may also be fixed at 1 in a 3-parameter fit. Y is the % inhibition and X is the compound concentration.
Assay [2] deals with Y641 mutant PRC2 enzyme (EZH2 Y641) (Homo sapiens, UniProt Q15910, Y641F). The experiment in a line: PRC2 enzyme assay on peptide substrate, Y641 mutant EZH2.
Description: as §1, §2, §3, §4, §5
The mark [3] stands for this setting: EZH2 WT IC50 (μM), wild-type PRC2 enzyme, H3K27me0 peptide substrate.
Where [4] appears, read: EZH2 Y641 IC50 (μM), Y641 mutant EZH2 such as Y641F, H3K27me2 peptide substrate.

Sequence of Y641 mutant PRC2 enzyme (EZH2 Y641) (Q15910 whole entry Y641F): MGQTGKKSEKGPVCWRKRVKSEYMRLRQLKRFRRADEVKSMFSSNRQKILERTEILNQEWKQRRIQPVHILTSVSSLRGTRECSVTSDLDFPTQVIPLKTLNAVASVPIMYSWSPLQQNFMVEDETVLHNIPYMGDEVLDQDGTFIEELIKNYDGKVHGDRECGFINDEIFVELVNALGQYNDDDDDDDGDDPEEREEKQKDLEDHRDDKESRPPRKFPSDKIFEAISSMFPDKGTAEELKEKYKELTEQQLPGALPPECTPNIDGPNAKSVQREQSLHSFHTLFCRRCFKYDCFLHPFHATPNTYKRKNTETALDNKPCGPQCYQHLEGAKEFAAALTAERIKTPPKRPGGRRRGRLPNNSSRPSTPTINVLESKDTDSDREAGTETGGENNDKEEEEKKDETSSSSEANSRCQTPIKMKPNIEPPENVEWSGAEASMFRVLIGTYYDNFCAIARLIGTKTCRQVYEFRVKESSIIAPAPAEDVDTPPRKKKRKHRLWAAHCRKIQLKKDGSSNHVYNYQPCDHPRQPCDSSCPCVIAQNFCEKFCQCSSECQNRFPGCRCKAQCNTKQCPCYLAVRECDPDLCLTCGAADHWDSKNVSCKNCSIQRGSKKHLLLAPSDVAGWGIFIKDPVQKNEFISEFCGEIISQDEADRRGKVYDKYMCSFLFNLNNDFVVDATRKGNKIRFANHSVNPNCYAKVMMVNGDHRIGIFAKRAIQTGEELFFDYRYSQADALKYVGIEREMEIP
Sequence of Y641 mutant PRC2 enzyme (EZH2 Y641) (O75530 whole entry partner): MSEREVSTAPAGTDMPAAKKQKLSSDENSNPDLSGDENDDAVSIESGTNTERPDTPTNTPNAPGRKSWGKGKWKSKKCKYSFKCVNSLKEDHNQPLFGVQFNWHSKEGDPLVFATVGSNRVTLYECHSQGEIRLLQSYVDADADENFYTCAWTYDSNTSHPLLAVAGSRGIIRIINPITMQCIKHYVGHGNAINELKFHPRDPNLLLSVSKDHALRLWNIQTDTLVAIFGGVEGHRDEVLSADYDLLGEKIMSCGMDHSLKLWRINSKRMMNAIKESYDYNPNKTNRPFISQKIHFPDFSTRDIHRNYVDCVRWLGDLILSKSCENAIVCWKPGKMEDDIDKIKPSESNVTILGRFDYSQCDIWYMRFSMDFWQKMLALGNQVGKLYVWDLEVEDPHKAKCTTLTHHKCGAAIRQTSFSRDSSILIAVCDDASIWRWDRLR
Sequence of Y641 mutant PRC2 enzyme (EZH2 Y641) (Q15022 whole entry partner): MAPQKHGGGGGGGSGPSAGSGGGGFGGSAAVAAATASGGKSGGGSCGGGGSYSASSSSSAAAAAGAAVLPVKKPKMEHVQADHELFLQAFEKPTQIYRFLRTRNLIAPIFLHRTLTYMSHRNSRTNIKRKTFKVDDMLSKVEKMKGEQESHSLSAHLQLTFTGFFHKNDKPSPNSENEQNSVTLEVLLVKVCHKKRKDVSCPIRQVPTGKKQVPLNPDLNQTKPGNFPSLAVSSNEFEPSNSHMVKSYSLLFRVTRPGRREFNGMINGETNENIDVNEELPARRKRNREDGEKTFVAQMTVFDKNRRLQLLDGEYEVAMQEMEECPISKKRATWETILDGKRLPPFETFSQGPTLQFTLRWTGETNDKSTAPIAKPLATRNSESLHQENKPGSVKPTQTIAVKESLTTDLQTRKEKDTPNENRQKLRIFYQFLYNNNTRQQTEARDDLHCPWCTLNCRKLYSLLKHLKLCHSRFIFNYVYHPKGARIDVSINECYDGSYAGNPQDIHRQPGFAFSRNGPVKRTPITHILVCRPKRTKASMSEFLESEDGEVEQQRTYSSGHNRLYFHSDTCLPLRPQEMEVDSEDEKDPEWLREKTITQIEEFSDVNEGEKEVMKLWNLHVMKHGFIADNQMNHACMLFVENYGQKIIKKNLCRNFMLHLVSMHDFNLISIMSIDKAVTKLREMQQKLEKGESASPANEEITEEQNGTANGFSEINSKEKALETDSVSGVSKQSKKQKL
Sequence of Y641 mutant PRC2 enzyme (EZH2 Y641) (Q09028 whole entry partner): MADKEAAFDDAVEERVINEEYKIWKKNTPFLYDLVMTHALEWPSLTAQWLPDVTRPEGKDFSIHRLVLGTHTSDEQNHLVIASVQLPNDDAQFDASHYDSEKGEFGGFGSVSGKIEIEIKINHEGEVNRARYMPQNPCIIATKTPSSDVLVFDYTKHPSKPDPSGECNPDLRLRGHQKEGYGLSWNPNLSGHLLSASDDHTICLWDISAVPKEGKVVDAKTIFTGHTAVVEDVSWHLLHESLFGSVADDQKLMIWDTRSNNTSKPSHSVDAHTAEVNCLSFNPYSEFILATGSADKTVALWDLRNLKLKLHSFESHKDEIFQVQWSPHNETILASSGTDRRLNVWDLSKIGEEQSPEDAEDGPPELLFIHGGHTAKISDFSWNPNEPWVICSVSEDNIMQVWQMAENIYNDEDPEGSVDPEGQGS
Sequence of wild-type PRC2 enzyme (EZH2 WT) (Q15910 whole entry): as the sequence (Q15910 whole entry Y641F) above, with F641Y counted along it
Sequence of wild-type PRC2 enzyme (EZH2 WT) (O75530 whole entry partner): as the sequence (O75530 whole entry partner) above
Sequence of wild-type PRC2 enzyme (EZH2 WT) (Q15022 whole entry partner): as the sequence (Q15022 whole entry partner) above
Sequence of wild-type PRC2 enzyme (EZH2 WT) (Q09028 whole entry partner): as the sequence (Q09028 whole entry partner) above

What is called IC50 is the point on the concentration scale where inhibition reaches its midpoint. A high value points to weaker potency in that assay. As to `CCC(C)n1cc(C)c2c(C(=O)NCc3c(C)n(C)[nH]c3=O)cc(-c3ccc(N4CCNCC4)nc3)cc21` (stereo not drawn) [compound 28, 1-(sec-butyl)-N-((1,5-dimethyl-3-oxo-2,3-dihydro-1H-pyrazol-4-yl)methyl)-3-methyl-6-(6-(piperazin-1-yl)pyridin-3-yl)-1H-indole-4-carboxamide], the half-inhibitory concentration (IC50) in assay [1] was in the range of 10 to 50 µM; in assay [2] it was 1 to 10 µM.

In the case of `COc1nn(C)c(C)c1CNC(=O)c1cc(Cl)c(C(C)Oc2ccccc2)cc1C` (stereo not drawn) [compound 9, 5-chloro-N-((3-methoxy-1,5-dimethyl-1H-pyrazol-4-yl)methyl)-2-methyl-4-(1-phenoxyethyl)benzamide], the IC50 in assay [1] and in assay [2] was greater than 50 µM each time.

Consider `Cc1c(CNC(=O)c2ccc(C(C)Oc3ccccc3)c(Cl)c2)c(=O)[nH]n1C` (stereo not drawn) [compound 4, 3-chloro-N-((1,5-dimethyl-3-oxo-2,3-dihydro-1H-pyrazol-4-yl)methyl)-4-(1-phenoxyethyl)benzamide], for which the IC50 in assay [1] and in assay [2] was greater than 50 µM in each case.

Turning to `CCC(C)n1cc(C)c2c(C(=O)NCc3c(OC)nn(C)c3C)cc(-c3ccc(N4CCNCC4)nc3)cc21` (stereo not drawn) [compound 27, 1-(sec-butyl)-N-((3-methoxy-1,5-dimethyl-1H-pyrazol-4-yl)methyl)-3-methyl-6-(6-(piperazin-1-yl)pyridin-3-yl)-1H-indole-4-carboxamide], the IC50 in assay [1] was in the range of 1 to 10 µM; in assay [2] it was 0.1 to 1 µM.

Regarding `CCN(c1cc(Cl)cc(C(=O)NC2CC(C)(C)NC(C)(C)C2)c1C)[C@H]1CC[C@H](N(C)CCOC)CC1` [compound 32, 5-chloro-3-(ethyl((trans)-4-((2-methoxyethyl)-(methyl)-amino)-cyclohexyl)amino)-2-methyl-N-(2,2,6,6-tetramethylpiperidin-4-yl)benzamide], the IC50 in assay [1] and in assay [2] was greater than 50 µM each time.

On to `Cc1c(CNC(=O)c2ccc(Oc3cccc(-c4ccnnc4)c3C#N)c(Cl)c2)c(=O)[nH]n1C` [compound 15, 3-chloro-4-(2-cyano-3-(pyridazin-4-yl)phenoxy)-N-((1,5-dimethyl-3-oxo-2,3-dihydro-1H-pyrazol-4-yl)methyl)benzamide], for which the concentration for half-maximal inhibition (IC50) in assay [1] and in assay [2] was 10 to 50 µM each time.

As for `Cc1cc(=O)c(CNC(=O)c2cc(Cl)c(C(C)Oc3ccccc3)cc2C)c(C)[nH]1` (stereo not drawn) [compound 11, 5-chloro-N-((2,6-dimethyl-4-oxo-1,4-dihydropyridin-3-yl)methyl)-2-methyl-4-(1-phenoxyethyl)benzamide], the IC50 in assay [1] lay in the range of 10 to 50 µM; in assay [2], 1 to 10 µM.

In the case of `COc1nn(C)c(C)c1CNC(=O)c1c(C)n(C(C)C2CCOCC2)c2ccccc12` (stereo not drawn) [compound 22, N-((3-methoxy-1,5-dimethyl-1H-pyrazol-4-yl)methyl)-2-methyl-1-(1-(tetrahydro-2H-pyran-4-yl)ethyl)-1H-indole-3-carboxamide], the IC50 in assay [1] (setting [3]) and in assay [2] (setting [4]) was greater than 50 µM each time.

As to `Cc1cc(Oc2cccc(-c3ccnnc3)c2C#N)c(Cl)cc1C(=O)NCc1c(C)n(C)[nH]c1=O` [compound 18, 5-chloro-4-(2-cyano-3-(pyridazin-4-yl)phenoxy)-N-((1,5-dimethyl-3-oxo-2,3-dihydro-1H-pyrazol-4-yl)methyl)-2-methylbenzamide], the IC50 in assay [1] and in assay [2] was 1 to 10 µM each time.

With `COc1c(CNC(=O)c2ccc(C(C)Oc3ccccc3)c(Cl)c2)c(C)nn1C` (stereo not drawn) [compound 2, 3-chloro-N-((5-methoxy-1,3-dimethyl-1H-pyrazol-4-yl)methyl)-4-(1-phenoxyethyl)benzamide], the concentration for half-maximal inhibition (IC50) in assay [1] and in assay [2] was greater than 50 µM in each case.

For `COc1nn(C)c(C)c1CNC(=O)c1cc(Cl)c(Oc2cccc(-c3ccnnc3)c2C#N)cc1C` [compound 17, 5-chloro-4-(2-cyano-3-(pyridazin-4-yl)phenoxy)-N-((3-methoxy-1,5-dimethyl-1H-pyrazol-4-yl)methyl)-2-methylbenzamide], the IC50 in assay [1] and in assay [2] was greater than 50 µM each time.

Consider `CCC(C)n1cc(C)c2c(C(=O)NCc3c(OC)nn(CC)c3C)cc(-c3ccc(N4CCNCC4)nc3)cc21` (stereo not drawn) [compound 29, 1-(sec-butyl)-N-((1-ethyl-3-methoxy-5-methyl-1H-pyrazol-4-yl)methyl)-3-methyl-6-(6-(piperazin-1-yl)pyridin-3-yl)-1H-indole-4-carboxamide], for which the half-inhibitory concentration (IC50) in assay [1] and in assay [2] was 1 to 10 µM in each case.

As for `Cc1cc(C(C)Oc2ccccc2)ccc1C(=O)NCc1c(C)n(C)[nH]c1=O` (stereo not drawn) [compound 8, N-((1,5-dimethyl-3-oxo-2,3-dihydro-1H-pyrazol-4-yl)methyl)-2-methyl-4-(1-phenoxyethyl)benzamide], the IC50 in assay [1] and in assay [2] was greater than 50 µM each time.

With `Cc1cc(=O)c(CNC(=O)c2ccc(Oc3cccc(-c4ccnnc4)c3C#N)c(Cl)c2)c(C)[nH]1` [compound 13, 3-chloro-4-(2-cyano-3-(pyridazin-4-yl)phenoxy)-N-((2,6-dimethyl-4-oxo-1,4-dihydropyridin-3-yl)methyl)benzamide], the IC50 was in the range of 10 to 50 µM in assay [1] and 1 to 10 µM in assay [2].

For `COc1c(CNC(=O)c2ccc(C(C)Oc3ccccc3)cc2C)c(C)nn1C` (stereo not drawn) [compound 7, N-((5-methoxy-1,3-dimethyl-1H-pyrazol-4-yl)methyl)-2-methyl-4-(1-phenoxyethyl)benzamide], the concentration for half-maximal inhibition (IC50) in assay [1] and in assay [2] was greater than 50 µM throughout.

On to `Cc1c(CNC(=O)c2c(C)n(C(C)C3CCOCC3)c3ccccc23)c(=O)[nH]n1C` (stereo not drawn) [compound 23, N-((1,5-dimethyl-3-oxo-2,3-dihydro-1H-pyrazol-4-yl)methyl)-2-methyl-1-(1-(tetrahydro-2H-pyran-4-yl)ethyl)-1H-indole-3-carboxamide], for which the figures for the IC50 in assay [1] (setting [3]) and in assay [2] (setting [4]) were greater than 50 µM and 10 to 50 µM, respectively.

As for `Cc1[nH]n(C)c(=O)c1CNC(=O)c1ccc(C(C)Oc2ccccc2)c(Cl)c1` (stereo not drawn) [compound 3, 3-chloro-N-((2,5-dimethyl-3-oxo-2,3-dihydro-1H-pyrazol-4-yl)methyl)-4-(1-phenoxyethyl)benzamide], the IC50 in assay [1] and in assay [2] was greater than 50 µM in each case.

Take `CCN(c1cc(Cl)cc(C(=O)NC2CC(C)(C)NC(C)(C)C2)c1C)[C@H]1CC[C@H](N(C)C)CC1` [compound 31, 5-chloro-3-(((trans)-4-(dimethylamino)cyclohexyl)(ethyl)amino)-2-methyl-N-(2,2,6,6-tetramethylpiperidin-4-yl)benzamide]: the IC50 in assay [1] and in assay [2] was greater than 50 µM in each case.

`Cc1cc(C(C)Oc2ccccc2)c(Cl)cc1C(=O)NCc1c(C)n(C)[nH]c1=O` (stereo not drawn) [compound 10, 5-chloro-N-((1,5-dimethyl-3-oxo-2,3-dihydro-1H-pyrazol-4-yl)methyl)-2-methyl-4-(1-phenoxyethyl)benzamide]: the IC50 in assay [1] and in assay [2] was 10 to 50 µM each time.

For `CCN(c1cc(-c2ccc(OCCOC)cc2)cc(C(=O)NC2CC(C)(C)NC(C)(C)C2)c1C)C1CCOCC1` [compound 34, 5-(ethyl(tetrahydro-2H-pyran-4-yl)amino)-4′-(2-methoxyethoxy)-4-methyl-N-(2,2,6,6-tetramethylpiperidin-4-yl)-[1,1′-biphenyl]-3-carboxamide], the IC50 in assay [1] and in assay [2] was greater than 50 µM throughout.

For the compound `COc1nn(C)c(C)c1CNC(=O)c1ccc(Oc2cccc(-c3ccnnc3)c2C#N)c(Cl)c1` [compound 14, 3-chloro-4-(2-cyano-3-(pyridazin-4-yl)phenoxy)-N-((3-methoxy-1,5-dimethyl-1H-pyrazol-4-yl)methyl)benzamide], the 50% inhibitory concentration (IC50) in assay [1] and in assay [2] was greater than 50 µM throughout.
